Source: article PMC6989684 (Scientific Reports, 2020)

Biological target: T1, M. musculus importin-α (MmImpα), variant α2, truncated 70–529 (Mus musculus, UniProt P52293)
T1 construct: histidine tag; made in house; host or cells: Escherichia coli Rosetta (TM) pLYS
Assay: Isothermal titration calorimetry (ITC), NLS peptide titrated into MmImpα
Assay type: binding
Settings: 20 °C; for interaction with Impα receptor in words: mutated PAC-3 NLS (basic cluster to Ala), pH 8.0, protein/peptide 1:10 and 1:20; for Stoichiometry (binding): mutated PAC-3 NLS, 20 mM Tris-HCl pH 8.0, 100 mM NaCl, protein/peptide 1:10 and 1:20
Source text: The gene encoding the protein Impα from M. musculus was cloned into the pET30a expression vector. Recombinant MmImpα was cloned with a histidine tag and as a truncated protein (70–529) to avoid autoinhibition. The clones were provided by Dr. Bostjan Kobe from the University of Queensland (Australia). The plasmid was expressed in Escherichia coli host strain Rosetta (TM) pLYS (Novagen), and the recombinant protein was purified by affinity chromatography according to Barros et al., 2012[59]. The protein was eluted with a 0.0–0.15 M imidazole linear gradient, concentrated using an Amicon dispositive, and the buffer was changed to 20 mM Tris-HCl, pH 8.0 and 100 mM NaCl for storage. The purified protein was stored at cryogenic temperature.
The samples were submitted to ITC experiments, performed with a MicroCal iTC200 microcalorimeter (GE Healthcare), where the peptide sample was titrated into the protein sample. […] Control experiments were performed by titration of the peptide sample into the buffer, and the data obtained were subtracted from the peptide:protein titrations. Data were processed using Origin 7.0 software (Microcal Software, Northampton, MA) to obtain the thermodynamic constants of the interactions.

Sequence	interaction with Impα receptor in words	Stoichiometry (binding)
FDAAAAQFDDLNDFFGSVKRRQIN [PAC3Δminor, mutated PAC-3 NLS peptide, N-terminal basic cluster mutated]	no measured interaction with Impα receptor	No binding
FDARKRQFDDLNDFFGSVAAAQIN [PAC3Δmajor, mutated PAC-3 NLS peptide, C-terminal basic cluster mutated]	no measured interaction with Impα receptor	No binding
